Earlier results as cited in patent US11951146B2, “Stimulation of NK cell activity by using a combination of broccoli, Nigella Sativa, Green Tea, and pterostilbene alone and together with metformin” (Therapeutic Solutions International, Inc., priority 2020, dated 2024).
Like-named read-outs stand apart in the source and are kept apart here. Blank lines part the entries; values can stand above or below the compound they belong to.

How the values were obtained:
[1] = tested on: LPS-challenged macrophages; settings: pre-incubated 6 h, then LPS 24 h
[2] = tested on: LPS-induced ARDS
[3] = tested on: primary peritoneal macrophages
[4] = tested on: lipopolysaccharide-induced inflammatory reactions
[5] = tested on: sepsis; settings: for concentration of IL-la: controls 1187.0±278.64
[6] = tested on: macrophage foam cells
[7] = tested on: polymicrobial sepsis; settings: 10 mg/kg intraperitoneally, 72 h after CL2P
[8] = tested on: myocardial ischemia and reperfusion; settings: EGCG 10 mg/kg intravenously then 10 mg/kg/h infusion
[9] = tested on: lipopolysaccharide-activated macrophages
[10] = tested on: polymicrobial sepsis; settings: 10 mg/kg intraperitoneally at 1 and 6 h after CL2P and every 12 h
[11] = tested on: lethal endotoxemia / lethal sepsis
[12] = tested on: LPS-induced ARDS; settings: EGCG 10 mg/kg ip
[13] = tested on: experimental colitis; settings: 50 and 100 mg/kg/day EGCG
[14] = rat, in vivo
[15] = tested on: interleukin-1, interleukin-6, interleukin-8, TNF-alpha

Compound: C[S+]([O-])CCCCN=C=S (stereo not shown) [sulforaphane, 1-isothiocyanato-4-(methylsulfinyl)-butane]
expression of NO and cytokines [1]: prevent the expression
Nrf2/antioxidant response element (ARE) pathway ([2]; pre-treatment): activated
LDH activity, wet-to-dry ratio of the lungs, serum IL-6 and TNF-α, nuclear factor-κB protein expression ([2]; sulforaphane 50 mg/kg, LPS 5 mg/kg 3 days later): significantly decreased
PGE2 production, COX-2 and MMP-9 protein expression, iNOS activity ([2]; sulforaphane 50 mg/kg, LPS-induced ALI): significantly inhibited
HO-1 expression ([3]; LPS-stimulated Nrf2 (+/+) primary peritoneal macrophages): significantly augmented
LPS-stimulated mRNA expression, protein expression and production of TNF-alpha, IL-1beta, COX-2 and iNOS ([3]; Nrf2 (+/+) primary peritoneal macrophages, pretreatment): potently inhibited
anti-inflammatory effect ([3]; Nrf2 (−/−) primary peritoneal macrophages): attenuated

Compound: CC1=CC(=O)C(C(C)C)=CC1=O [thymoquinone]
lipopolysaccharide-induced inflammatory reactions [4]: suppressed effectively
concentration of nitric oxide ([4]; lipopolysaccharide-induced): reduced significantly
concentration of IL-la ([5]; 0.75 mg/kg thymoquinone dose): 310.8 ± 70.93 pg/mL
IL-1β levels ([5]; 0.75 mg/kg thymoquinone, controls 5505.2±333.96): 2885.0 ± 553.98 pg/mL
concentration of IL-la ([5]; 1 mg/kg group): 428.3 ± 71.32 pg/mL
levels of TNF-α and IL-2 ([5]; P values=0.1817 and 0.0851): relatively lower levels
reduction of mortality ([5]; mice, sepsis): 80-90%
renal and hepatic biomarker profiles ([5]; mice, sepsis): improved

Compound: epigallocatechin-3-gallate [EGCG]
TNF-α-induced nuclear factor-κB (NF-κB) activity [6]: inhibition
TNF-α-induced downregulation of ABCA1 and decrease in cholesterol efflux to apoA1 ([6]; pretreatment with EGCG): attenuated
survival [7]: significantly improved
myocardial damage and myeloperoxidase activity [8]: reduced
plasma IL-6 and creatine phosphokinase levels [8]: decreased
NO production ([9]; cells cotreated with EGCG and LPS): Inhibition
activation of nuclear factor-kappaB ([9]; electrophoretic mobility shift assay): blocked the activation
hypotension (mean arterial blood pressure) [10]: significantly improved
rescue from lethal sepsis ([11]; first dose 24 hours after cecal ligation and puncture): rescued
protection against lethal endotoxemia ([11]; intraperitoneal): protected
expression of IκB-α [12]: increased the expression
expression of TLR-4, MyD88, TRIF and p-p65 in the lung tissue [12]: alleviated the expression
expression of TNF-α, IL-1β and IL-6 in lung, serum and bronchoalveolar lavage fluid [12]: significantly decreased
expression of p65 [12]: had no influence
HIF-la and STAT3 protein expression in the colon [13]: decreasing
plasma levels of IL-1β and TGF-β1 [13]: increasing
release of IL-6 and IL-17 [13]: reduce the release

bioavailability [14]: 80%
Compound: trans-3,5-dimethoxy-4-hydroxystilbene [pterostilbene]
inhibition of interleukin-1, interleukin-6, interleukin-8 and TNF-alpha [15]: inhibition
